Laboratory results from patent US20100159030A1, “METHODS FOR DETECTING AND MODULATING THE SENSITIVITY OF TUMOR CELLS TO ANTI-MITOTIC AGENTS AND FOR MODULATING TURMORGENICITY” (NewSouth Innovations Pty Limited, priority 2007, published 2010).

Experiments:
[1] = system: H460 cells; experiment: Soft agar colony assay (anchorage-independent cell growth); assay type: cell-based, Human; conditions: vs mock or control siRNA/shRNA cells; 27-mers at 5 nM
Procedure: H460 cells were transfected with βIII-tubulin siRNA or control siRNA for 24 h as described above. Cells from each sample (1,000 cells per dish) were resuspended in 0.33% agar (37° C.) in RPMI containing 20% FCS, and plated onto 0.5% solidified agar/20% FCS/RPMI (37° C., bottom supportive layer) in 35 mm dishes. Triplicate plates were set up for each sample. The plates were placed at 4° C. for 10 min to solidify the top agar and then incubated at 37° C. in 5% CO2 for 12 days. After 12 days of culture, the colonies were counted and photographed using the Zeiss Axiovert S100 inverted microscope, 5× objective and SPOT digital camera (Thornwood, N.Y.).

[2] = system: NSCLC H460 cells; experiment: Drug-treated clonogenic assay (surviving fraction, ID50) on siRNA/shRNA-transfected cells; assay type: cell-based, Human; conditions: for RS (relative sensitivity): Table 3
Procedure: Cells were transfected for 24 h and approximately 600 cells (for Calu-6) or 150 cells (for H460) were seeded into each well of a 6-well plate and allowed to attach for 4-6 h. The cell lines used in this study were not subject to prior drug selection, and are likely to represent intrinsic drug resistance observed in lung carcinoma.
Cells were then treated with increasing concentrations of various anti-mitotic drugs. Following a 3-day incubation at 37° C., the drug-containing medium was removed and replaced with fresh complete medium. Medium was changed at 3-4 day intervals for 7 to 10 days until visible colonies formed. […] Surviving colonies were simultaneously fixed and stained with 0.5% crystal violet in methanol, rinsed with water to remove excess stain and air-dried overnight.
The colonies in each well were manually counted, and the results were presented as surviving fraction according to the formula: surviving fraction was calculated as follows: colony number/(number of cells seeded×plating efficiency), where plating efficiency is equivalent to the colony number divided by the number of cells seeded in the drug-free medium. Dose-response curves were plotted for each drug-cell line combination and inhibitory dose (ID50) values were extrapolated from this curve using GraphPad Prism program (GraphPad Software, version 4, San Diego, Calif.). ID50 was defined as the concentration of the drug required to reduce the number of colonies in drug-treated wells to 50% of that of the relevant untreated control wells. The ID50 values were the means of at least four independent experiments.
To quantitate any change in drug sensitivity, drug treated clonogenic assays were performed. Twenty-four hours after siRNA transfection, cells were harvested and plated into 6-well plates for 6 h, prior to the addition of various drugs as indicated in the figure legends. After 72 h incubation, the drug-containing media was removed and replaced with complete growth media. Medium was changed every 3 days for 7 to 10 days until visible colonies formed. Colonies were simultaneously fixed and stained with 0.5% crystal violet in methanol, and manually counted. Individual stained colonies in each well were counted and the surviving fraction was calculated as follows: colony number/(number of cells seeded×plating efficiency), where plating efficiency equals the colony number divided by the number of cells seeded in drug-free media.

[3] = system: H460 cells stably expressing control or class III β-tubulin shRNA in subcutaneous tumors; experiment: Nude mouse xenograft, cisplatin (CDDP) treatment of tumors from H460 shRNA clones; assay type: in vivo, BALB/c athymic nude mice; conditions: 3 doses CDDP 3.33 mg/kg over 3 days
Procedure: FIG. 22 is a column chart illustrating the mean number of days for tumor to reach 1000 mm^3 post-treatment with cisplatin (CDDP) or phosphate buffered saline control (PBS) in a nude mouse xenograft animal model. Graphs illustrate results for control shRNA clones 1 and 2 with and without CDDP treatment and βIII-tubulin shRNA clones 4 and 59 with and without CDDP treatment. Once tumors reached approx 300 mm3 mice were treated with 3 doses of CDDP 3.33 mg/kg over 3 days or its vehicle control (PBS). Tumors were then measured twice weekly and mice were sacrificed once tumors reached 1000 mm^3 (n=5 mice per treatment group). Mean number of days were: Control clone 1 (PBS) 15.6 days±4.95; Control clone 1 (CDDP) 13 days±4.21; Control clone 2 (PBS) 7.2 days±1.5; Control clone 2 (CDDP) 10.8 days±3.54; class III 3-tubulin shRNA clone 4 (PBS) 15.6 days±3.12; class III β-tubulin shRNA clone 4 (CDDP) 35 days±3.03; class III β-tubulin shRNA clone 59 (PBS) 15.6 days±2.11; class III β-tubulin shRNA clone 59 (CDDP) 29.4 days±3.93.
FIG. 24A is a plot of tumor volume over time in a nude mouse xenograft animal model following treatment with cisplatin (CDDP) or phosphate buffered saline control (PBS). Tumor size was plotted in mm^3 for control clone 2 with or without CDDP post-treatment and class III β-tubulin shRNA clone 4 with and without CDDP post-treatment. Once tumors reached approx 300 mm^3 mice were treated with 3 doses of CDDP (3.33 mg/kg) over 3 days or its vehicle control (PBS). Tumors were then measured twice weekly and mice sacrificed once tumors reached 1000 mm^3 FIG. 24B illustrates Kaplin Meier survival curves for tumors of two different clones with or without class III β-tubulin silencing and following CDDP or PBS vehicle treatment in vivo. Clone 2 was a control clone and clone 4 was class III β-tubulin silenced with shRNA. FIG. 24C is a plot of tumor size over time in a nude mouse xenograft animal model following treatment with cisplatin (CDDP) or phosphate buffered saline control (PBS). […] Tumors were then measured twice weekly and mice sacrificed once tumors reached 1000 mm^3 FIG. 24D illustrates Kaplin Meier survival curves for control clone 2 with and without CDDP post-treatment and for class III β-tubulin shRNA clone 59 with and without CDDP post-treatment. […]
Female BALB/c athymic nude mice (5-6 week old) were maintained under pathogen-free conditions. […] The animals were monitored twice a week from the second week post-injection for tumor formation and health status. Tumor diameter was measured twice per week using a digital caliper throughout the experiment, and tumor volume in mm^3 was calculated using the formula: Volume=(length×width×depth)/2. […]

[4] = system: H460 cells; experiment: Apoptosis induction, Annexin V-FITC flow cytometry; assay type: cell-based, Human; conditions: βIII-tubulin siRNA vs control siRNA cells, 48 h; paclitaxel 1, 2, 5 nM; cisplatin 0.4 or 1 μM
Procedure: Annexin V-FITC staining followed by flow cytometry analysis was performed to address whether the increase in the sub-G1 population following exposure to tubulin-binding agents in the βIII-tubulin siRNA treated cells was related to an increase in apoptosis induction. Apoptosis induction was determined by transfecting H460 cells with siRNA for 72 h and harvesting (adherent and suspension) cells 48 h after drug treatment, as previously described in Pasquier et al., Mol Cancer Ther 2004; 3:1301-10. Briefly, 1×10^5 cells were incubated with Annexin V-FITC and propidium iodide for 15 min in the dark (Becton-Dickinson), immediately followed by flow cytometry using a FACSCalibur (Becton-Dickinson). Cytogram analysis was performed using CellQuest® software.

[5] = system: class III β-tubulin; experiment: Knockdown of class III β-tubulin expression (western blot, RT-PCR); assay type: cell-based, Human; conditions: H460, subculturing time course
Procedure: The effects of βIII-tubulin siRNA transfection on the gene and protein expression of the isotype, were assessed by RT-PCR and western blotting. For RT-PCR, total RNA was extracted from the transfected cells using the Trizol® reagent (Invitrogen), according to the manufacturer's instructions. RNA samples were DNAse-treated, reverse transcribed for RT-PCR analysis using methodology and specific primers as described in detail previously (Kavallaris et al. (1997) J Clin Invest 100, 1282-1293). B eta-2-micro globulin (β2M) was used as an internal mRNA control. Preparation of protein lysates and Western blot analysis were performed as follows. […] Primary antibodies were detected using horseradish peroxidase-linked secondary antibody (Amersham Pharmacia Biotech, Uppsala, Sweden) and enhanced chemiluminescence (GE Healthcare, Uppsala, Sweden) was used for detection. The blots were scanned using the Typhoon® scanner and quantified using ImageQuant® software version 5.2 (Molecular Dynamics Inc, Sunnyvale, Calif.). […]

Molecule	number of colonies in soft agar [1]	RS (relative sensitivity) ([2]; Ctrl clone 2 compared to ctrl clone 1)	RS (relative sensitivity) ([2]; βIII shRNA clone 4 compared to ctrl clone 1)	RS (relative sensitivity) ([2]; βIII shRNA clone 59 compared to ctrl clone 1)	RS (relative sensitivity) ([2]; βIII shRNA clone 60 compared to ctrl clone 1)	change in drug sensitivity (clonogenic survival) ([2]; βIII-tubulin siRNA silencing vs controls, H460)	mean number of days for tumor to reach 1000 mm^3 post-treatment ([3]; Control clone 1)	mean number of days for tumor to reach 1000 mm^3 post-treatment ([3]; Control clone 2)	mean number of days for tumor to reach 1000 mm^3 post-treatment ([3]; class III β-tubulin shRNA clone 4)	mean number of days for tumor to reach 1000 mm^3 post-treatment ([3]; class III β-tubulin shRNA clone 59)	percentage of apoptotic cells [4]	duration of class III β-tubulin protein knockdown [5]
27-mer βIII siRNA Sequence-8: 27-mer siRNA to class III β-tubulin, SEQ ID NO: 11 and 12, position 1521-1545 (chain 1 AGACAGAGACAGGAGCAGCUCACACGU; chain 2 GUGUGAGCUGCUCCUGUCUCUGUCT; chemistry not given here)	significantly less colonies	–	–	–	–	–	–	–	–	–	–	–
[NH2][Pt]([NH2])([Cl])[Cl] [CDDP, cisplatin]	–	(1.06, NS)	(2.42, 0.0002***)	(1.86, 0.001**)	(1.72, 0.0019**)	increased sensitivity	13 days	10.8 days	35 days	29.4 days	significant increase in the number of apoptotic cells	–
27-mer βIII siRNA Sequence-11: 27-mer siRNA to class III β-tubulin, SEQ ID NO: 13 and 14, position 1352-1376 (chain 1 UCUCACUCCAGCUGCGAGCAGCUUCAC; chain 2 GAAGCUGCUCGCAGCUGGAGUGAGA; listed as RNA, chemistry not given here)	significantly less colonies	–	–	–	–	–	–	–	–	–	–	6 days
